Measurements as given in ChEMBL document CHEMBL2169869, “Assay and inhibition of diacylglycerol lipase activity” (Bioorg Med Chem Lett, 2012).
Active and inactive are the calls of the source. No cut-off for these calls is given here.

Experiments:
[1] = target: Cannabinoid receptor 2 (Mus musculus, UniProt P47936); assay: Displacement of [3H]CP55940 from CB2 receptor in mouse spleen membrane; assay type: cell membranes
[2] = target: T1, Monoglyceride lipase (Homo sapiens) (UniProt Q99685); assay: Inhibition of human N-terminal histidine tagged full length MAGL expressed in Escherichia coli at 10 uM by coumarin ester substrate fluorescence assay
T1 sequence (whole entry): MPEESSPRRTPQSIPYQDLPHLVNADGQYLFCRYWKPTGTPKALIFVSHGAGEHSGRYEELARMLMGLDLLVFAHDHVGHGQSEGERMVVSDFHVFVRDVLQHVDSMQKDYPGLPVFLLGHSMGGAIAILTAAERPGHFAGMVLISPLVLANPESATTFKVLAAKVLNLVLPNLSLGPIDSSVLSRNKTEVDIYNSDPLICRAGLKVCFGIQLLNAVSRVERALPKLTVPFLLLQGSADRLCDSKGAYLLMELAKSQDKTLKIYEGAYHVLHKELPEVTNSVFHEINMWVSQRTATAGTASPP

[3] = target: Cannabinoid receptor 1 (Rattus norvegicus, UniProt P20272); assay type: cell membranes, Brain
Cannabinoid receptor 1, sequence (P20272 whole entry): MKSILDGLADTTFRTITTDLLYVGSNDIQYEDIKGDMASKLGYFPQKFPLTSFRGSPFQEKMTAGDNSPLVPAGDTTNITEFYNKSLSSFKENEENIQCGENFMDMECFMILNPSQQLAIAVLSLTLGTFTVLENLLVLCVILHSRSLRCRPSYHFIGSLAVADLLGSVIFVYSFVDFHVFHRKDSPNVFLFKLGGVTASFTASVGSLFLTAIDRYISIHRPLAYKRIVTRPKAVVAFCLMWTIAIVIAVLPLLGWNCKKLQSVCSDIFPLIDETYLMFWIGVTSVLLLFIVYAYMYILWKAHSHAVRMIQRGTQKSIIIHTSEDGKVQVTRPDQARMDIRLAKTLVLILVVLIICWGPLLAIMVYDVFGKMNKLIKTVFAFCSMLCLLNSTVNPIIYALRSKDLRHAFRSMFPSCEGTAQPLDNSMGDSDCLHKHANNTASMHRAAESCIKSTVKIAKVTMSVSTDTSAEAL
Description: Displacement of [3H]CP55940 from CB1 receptor in rat brain synaptosome membrane

[4] = target: T2, Fatty-acid amide hydrolase 1 (Rattus norvegicus) (UniProt P97612); assay: Inhibition of rat histidine tagged FAAH expressed in Escherichia coli at 10 uM by coumarin ester substrate fluorescence assay
T2 sequence (whole entry): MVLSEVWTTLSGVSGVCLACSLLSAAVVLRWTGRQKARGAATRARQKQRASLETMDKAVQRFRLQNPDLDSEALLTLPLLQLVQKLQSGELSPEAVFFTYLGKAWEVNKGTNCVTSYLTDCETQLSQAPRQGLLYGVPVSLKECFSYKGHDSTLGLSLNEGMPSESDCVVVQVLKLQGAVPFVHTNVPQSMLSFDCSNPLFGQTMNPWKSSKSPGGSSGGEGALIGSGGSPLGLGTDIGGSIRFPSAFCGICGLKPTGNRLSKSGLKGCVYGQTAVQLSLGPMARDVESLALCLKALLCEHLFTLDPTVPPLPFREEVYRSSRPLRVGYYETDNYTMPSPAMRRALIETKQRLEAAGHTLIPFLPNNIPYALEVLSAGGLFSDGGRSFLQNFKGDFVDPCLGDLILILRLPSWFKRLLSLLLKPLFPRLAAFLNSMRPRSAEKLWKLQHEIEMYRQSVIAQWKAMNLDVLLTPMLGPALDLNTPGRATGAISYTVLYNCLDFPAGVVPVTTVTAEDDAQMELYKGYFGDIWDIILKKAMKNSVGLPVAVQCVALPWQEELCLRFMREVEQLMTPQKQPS

[5] = target: Cannabinoid receptor 2 (Homo sapiens, UniProt P34972); assay: Displacement of [3H]CP55940 from human CB2 receptor expressed in HEK293 cells; assay type: cell-based
Cannabinoid receptor 2 (Homo sapiens, UniProt P34972), sequence (P34972 whole entry): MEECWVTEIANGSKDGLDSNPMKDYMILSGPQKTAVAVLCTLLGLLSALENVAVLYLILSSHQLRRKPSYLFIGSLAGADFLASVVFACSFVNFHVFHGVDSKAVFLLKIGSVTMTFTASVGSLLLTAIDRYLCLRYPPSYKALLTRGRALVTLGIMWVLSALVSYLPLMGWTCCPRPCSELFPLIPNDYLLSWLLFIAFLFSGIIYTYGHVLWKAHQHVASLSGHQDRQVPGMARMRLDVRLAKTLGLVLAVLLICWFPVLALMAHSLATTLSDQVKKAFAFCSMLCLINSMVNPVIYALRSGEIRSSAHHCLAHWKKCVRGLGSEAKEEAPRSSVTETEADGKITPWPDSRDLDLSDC

Cannabinoid receptor 2 (Mus musculus, UniProt P47936), sequence (P47936 whole entry): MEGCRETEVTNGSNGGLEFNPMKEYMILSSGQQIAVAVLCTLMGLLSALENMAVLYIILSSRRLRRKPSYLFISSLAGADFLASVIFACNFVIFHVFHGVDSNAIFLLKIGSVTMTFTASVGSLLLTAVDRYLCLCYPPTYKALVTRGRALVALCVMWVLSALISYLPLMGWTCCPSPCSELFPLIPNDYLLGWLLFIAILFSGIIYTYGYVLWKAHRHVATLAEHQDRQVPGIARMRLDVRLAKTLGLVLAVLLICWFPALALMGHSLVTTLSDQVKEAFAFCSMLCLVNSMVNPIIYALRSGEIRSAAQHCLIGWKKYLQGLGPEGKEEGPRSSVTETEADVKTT

Compound | Ki [1] | inhibition [2] | Ki [3] | inhibition [4] | Ki [5]
CCCCCCCC(=O)NCC(COC)OC(=O)CCCCCCC (racemic) | > 1 µM | inactive | > 1 µM | inactive | > 1 µM
COCC(CNC(=O)ON=C1CCCCC1)OC(=O)CCCc1ccc(-c2ccccc2)cc1 (racemic) | > 1 µM | inactive | > 1 µM | inactive | > 1 µM
CCCCCCCC/C=C\CCCCCCCC(=O)OC(CNC(=O)CCCCCCC)COC (racemic) | > 1 µM | inactive | > 1 µM | inactive | > 1 µM
CCCCCCCC/C=C\CCCCCCCC(=O)OC(CNC(=O)ON=C1CCCCC1)COC (racemic) | > 1 µM | inactive | > 1 µM | inactive | > 1 µM
CCCCCCCCCCCCCCCCS(=O)(=O)F |  |  |  | 100% | 
CCCCCCCCOC(=O)NCC(COC)OC(=O)CCCCCCC (racemic) | > 1 µM | inactive | > 1 µM | inactive | > 1 µM
CCCCCCCCNC(=O)OCC(COC)OC(=O)NCCCCCCCC (racemic) | > 1 µM | inactive | > 1 µM | inactive | > 1 µM
COCC(COC(=O)CCCc1ccc(-c2ccccc2)cc1)OC(=O)CCCc1ccc(-c2ccccc2)cc1 (racemic) | > 1 µM | inactive | > 1 µM | inactive | > 1 µM
COCC(O)CNC(=O)ON=C1CCCCC1 (racemic) | > 1 µM | inactive |  | inactive | > 1 µM
CCCCCCCC/C=C\CCCCCCCC(=O)OC(CNC(=O)OCCCCCCCC)COC (racemic) | > 1 µM | inactive | > 1 µM | inactive | > 1 µM
CCCCC/C=C\C/C=C\C/C=C\C/C=C\CCCC(=O)OC(COC)COC(=O)NCCCCCCCC (racemic) | > 1 µM | inactive | > 1 µM | inactive | > 1 µM
COCC(CNC(=O)CCCc1ccc(-c2ccccc2)cc1)OC(=O)CCCc1ccc(-c2ccccc2)cc1 (racemic) | > 1 µM | inactive | > 1 µM | inactive | > 1 µM
CCCCCCCCNC(=O)OCC(COC)OC(=O)CCCCCCC (racemic) | > 1 µM | inactive | > 1 µM | inactive | > 1 µM
CCCCCCCCNC(=O)OCC(OC)O[Si](c1ccccc1)(c1ccccc1)C(C)(C)C (racemic) | > 1 µM | inactive | > 1 µM | inactive | > 1 µM
CCCCCCCC(=O)OC(CNC(=O)ON=C1CCCCC1)COC (racemic) | > 1 µM | inactive | > 1 µM | inactive | > 1 µM
CCCCCCCC/C=C\CCCCCCCC(=O)OC(COC)COC(=O)NCCCCCCCC (racemic) | > 1 µM | inactive | > 1 µM | inactive | > 1 µM
CCCCCCCC(=O)OCC(COC)OC(=O)CCCCCCC (racemic) | > 1 µM | inactive | > 1 µM | inactive | > 1 µM
